Experiments:
Assay type in all cases: cell-based
[1] = system: AML12 cells (mouse hepatocyte cell lines); test: Fibrosis markers by Western blotting after TGF-β induction, TGF-β receptor inhibitor; conditions: 2 ng/ml TGF-β, 10 μM EW-7197, 24 hours, FIG. 2
Description: (§1) Cell experiments were performed by using AML12, […], and LX-2 cells, a human hepatic stellate cell.
AML12 cells were cultured in a culture medium made by adding 5 ml of insulin (ITS), 40 ng/ml of dexamethasone, 1% penicillin streptomycin (anti-anti), and 10% fetal bovine serum (FBS) to F-12 media (Corning Incorporated, USA, Arizona), a mixture of a DMEM medium and Ham's F-12 at a ratio of 50:50, which is used for culturing hepatocytes or prostate epithelial cells.
(§2) Fibrosis was induced in hepatocytes with TGF-β, a TGF-β receptor inhibitor was administered, and fibrosis was checked.
(§3) Specifically, 2 ng/ml of TGF-β was administered to the cells of Example 1-1, and administered or not administered with 10 μM EW-7197 (EW), and cultured for 24 hours. The control group (Con) was not treated with either TGF-β or the sample. […] A protein concentration was measured by BCA assay (Pierce Biotechnology Inc). […] Then, the membranes were washed, briefly incubated with Pico Enhanced Peroxidase Detection (EPD) Western reagent (ELPISBIOTECH. INC.) according to the manufacturer's procedure, and quantified by using an image analyzer (ImageQuant™ LAS 500, GE Healthcare Bio-Sciences AB, Uppsala, Sweden). β-actin was used as an internal control. Densitometry of protein intensity was quantified by using ImageJ (National Institutes of Health). […]

[2] = system: LX-2 cells (human hepatic stellate cell lines); test: as above; conditions: 2 ng/ml TGF-β, 10 μM EW-7197, 24 hours, FIG. 3
Description: as §1
LX-2 cells were cultured in a culture medium made by adding 1% penicillin streptomycin (anti-anti) and 10% fetal bovine serum (FBS) to a DMEM medium containing high glucose (4500 mg/L D-glucose, L-glutamine, 110 mg/L sodium pyruvate, sodium bicarbonate).
as §2, §3

[3] = system: mouse hepatocyte cell lines (AML12); test: TGF-β-induced fibrosis, co-administration of dehydrozingerone derivative and EW-7197 (epithelial-mesenchymal conversion, BODIPY, α-SMA staining); conditions: 2 ng/ml TGF-β, 24 hours, 10 μM EW-7197, 1 μM Cur or Cur5-8, 10 μM DHZ, DHZ103 or DHZ176
Description: In addition, the curcumin derivative Cur5-8 of Example 1-4 and the TGF-β receptor inhibitor were co-administered, and then fibrosis and fat synthesis and degradation were checked again. […] The control group (Con) was not treated with either TGF-β or the sample. […] After washing with PBS 1×, stained cells were observed. In addition, in order to check the degree of fibrosis of hepatocytes, the cells cultured for 24 hours were fixed with 4% paraformaldehyde and stained by using α-SMA (Santa Cruz Biotechnology, Inc., Dallas, Texas, USA), an Alexafluor 488 (Cell Signaling Technology, Danvers, Massachusetts, USA) antibody, and DAPI (Abcam plc., Cambridge, MA, USA). The cells were mounted with a mounting solution (Fisher Scientific, Hampton, Rockingham, USA), the manufactured sample was photographed using a confocal microscope to obtain photographs of stained cells, and the degree of color development in the photographs of the stained cells was analyzed with the ImageJ program.

For `Cc1cccc(-c2[nH]c(CNc3ccccc3F)nc2-c2ccc3ncnn3c2)n1` [EW-7197, N-(2-fluorophenyl)-5-(6-methyl-2-pyridinyl)-4-[1,2,4]triazolo[1,5-a]pyridin-6-yl-1H-imidazole-2-methanamine], the “protein expressions of α-SMA, Coll, p-SMAD2, and p-SMAD3 increased by TGF-β” value [1] was “inhibited”, the “protein expressions of α-SMA, Coll, p-SMAD2, and p-SMAD3 increased by TGF-β” value [2] was “inhibited” and the “epithelial-mesenchymal conversion caused by TGF-β” value ([3]; FIG. 16) was “inhibited”. For the same molecule, the “fat accumulation / adipogenesis in cells (BODIPY staining)” value ([3]; FIGS. 16, 17) was “fat accumulation in cells was exhibited” and the “liver fibrosis (α-SMA staining)” value ([3]; FIGS. 16, 18) was “inhibited”.

Reference: patent publication US20230364069A1, “METHOD FOR TREATING NON-ALCOHOLIC STEATOHEPATITIS THROUGH CO-ADMINISTRATION OF CURCUMIN DERIVATIVE AND TGF-B RECEPTOR INHIBITOR” (UNIVERSITY INDUSTRY FOUNDATION, YONSEI UNIVERSITY WONJU …, priority 2021, published 2023)
